Among the data in US20230295200A1 (REGENTS OF THE UNIVERSITY OF MICHIGAN, priority 2022, published 2023) are Ki values, retold here.

Molecules are shown by their SMILES.

In test [1] the target is T1, STAT5A (Homo sapiens, UniProt P42229).
T1 sequence (P42229 1-794): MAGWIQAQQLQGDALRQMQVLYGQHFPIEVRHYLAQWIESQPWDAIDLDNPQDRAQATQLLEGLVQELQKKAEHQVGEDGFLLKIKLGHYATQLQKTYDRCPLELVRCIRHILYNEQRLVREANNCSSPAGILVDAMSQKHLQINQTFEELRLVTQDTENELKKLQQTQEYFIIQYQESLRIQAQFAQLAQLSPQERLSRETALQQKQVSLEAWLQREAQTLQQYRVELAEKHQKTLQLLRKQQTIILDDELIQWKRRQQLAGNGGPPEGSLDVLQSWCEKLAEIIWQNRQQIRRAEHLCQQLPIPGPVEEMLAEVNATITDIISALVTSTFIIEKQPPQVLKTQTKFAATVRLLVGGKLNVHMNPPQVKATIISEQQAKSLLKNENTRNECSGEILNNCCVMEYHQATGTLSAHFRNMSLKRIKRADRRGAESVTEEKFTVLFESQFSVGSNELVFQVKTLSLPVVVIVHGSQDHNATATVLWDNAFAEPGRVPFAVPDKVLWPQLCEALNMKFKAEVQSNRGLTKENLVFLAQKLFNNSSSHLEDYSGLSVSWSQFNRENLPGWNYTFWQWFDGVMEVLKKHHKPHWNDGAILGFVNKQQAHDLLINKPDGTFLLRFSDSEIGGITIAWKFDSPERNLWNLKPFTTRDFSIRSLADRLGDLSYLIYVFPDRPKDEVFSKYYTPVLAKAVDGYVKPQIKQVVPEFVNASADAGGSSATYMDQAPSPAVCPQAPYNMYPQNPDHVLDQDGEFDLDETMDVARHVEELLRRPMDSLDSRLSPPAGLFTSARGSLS
The experiment in a line: Fluorescence polarization (FP) binding assay, STAT5A. The following applies: FP competition, 5 nM fluorescein-labeled tracer, 200 nM protein, PBS pH7.4. The essentials: (§1)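 Each well holds 200 nM STAT5 and/or STAT6 with 5 nM fluorescent tracer in PBS pH 7.4 (0.01% BGG, 0.01% Tween-20, 2 mM DTT). Binding reaches equilibrium over 1 h at room temperature after brief shaking, and polarization data are fitted nonlinearly.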

Test [2] concerns the target T2, STAT6 protein (Homo sapiens, UniProt P42226).
T2 sequence (P42226 1-847): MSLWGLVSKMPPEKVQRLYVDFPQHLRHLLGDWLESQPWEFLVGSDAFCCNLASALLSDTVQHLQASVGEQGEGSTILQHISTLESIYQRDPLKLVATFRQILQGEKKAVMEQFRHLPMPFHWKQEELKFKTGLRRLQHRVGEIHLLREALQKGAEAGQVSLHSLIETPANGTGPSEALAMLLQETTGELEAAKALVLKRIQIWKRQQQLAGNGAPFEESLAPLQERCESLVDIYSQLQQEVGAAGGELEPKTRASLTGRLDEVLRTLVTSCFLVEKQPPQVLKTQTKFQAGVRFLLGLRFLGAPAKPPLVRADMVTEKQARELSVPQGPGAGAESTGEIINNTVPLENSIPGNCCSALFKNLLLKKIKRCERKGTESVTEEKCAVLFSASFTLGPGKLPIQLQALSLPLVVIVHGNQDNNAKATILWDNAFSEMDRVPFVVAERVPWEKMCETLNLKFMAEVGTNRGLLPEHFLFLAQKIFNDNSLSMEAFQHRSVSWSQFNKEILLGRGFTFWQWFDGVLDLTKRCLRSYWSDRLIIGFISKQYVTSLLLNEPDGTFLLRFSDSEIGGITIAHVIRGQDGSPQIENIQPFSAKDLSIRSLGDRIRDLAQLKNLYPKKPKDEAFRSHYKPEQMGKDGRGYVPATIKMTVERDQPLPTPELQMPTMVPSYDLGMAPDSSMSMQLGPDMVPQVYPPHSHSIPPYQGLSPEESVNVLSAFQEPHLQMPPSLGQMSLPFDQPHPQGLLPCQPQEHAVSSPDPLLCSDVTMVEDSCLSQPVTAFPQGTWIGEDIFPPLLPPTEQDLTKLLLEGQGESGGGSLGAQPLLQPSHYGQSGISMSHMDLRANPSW
The test is described as follows: Fluorescence polarization (FP) binding assay, STAT6. The following applies: FP competition, 5 nM fluorescein-labeled tracer, 200 nM protein, PBS pH7.4; read-out: Binding STAT6. The essentials: as §1
In general terms: In fluorescence polarisation assays a small probe gives low polarisation when free and higher when bound to something large.

For `O=C(N[C@H](C(=O)N1CCC[C@H]1C(=O)N1CCO[C@@H](c2ccccc2)C1)C1CC1)c1cc2cc(C(F)(F)P(=O)(O)O)ccc2s1` [Compound 154, ((2-(((S)-1-cyclopropyl-2-oxo-2-((S)-2-((S)-2-phenylmorpholine-4-carbonyl)pyrrolidin-1-yl)ethyl)carbamoyl)benzo[b]thiophen-5-yl)difluoromethyl)phosphonic acid], the results for the Ki in test [1] and in test [2] were more than 10 µM and 1 to 10 µM, respectively.
The like results for `O=C(NC1(C(=O)N2CCC[C@H]2C(=O)N2CCO[C@@H](c3ccccc3)C2)CCC1)c1cc2cc(C(F)(F)P(=O)(O)O)ccc2s1` [Compound 155, (difluoro(2-((1-((S)-2-((S)-2-phenylmorpholine-4-carbonyl)pyrrolidine-1-carbonyl)cyclobutyl)carbamoyl)benzo [b]thiophen-5-yl)methyl)phosphonic acid] were, in that order, more than 10 µM and more than 10 µM.
The like results for `CC(C)(O)[C@H](NC(=O)c1cc2cc(C(F)(F)P(=O)(O)O)ccc2s1)C(=O)N1CCC[C@H]1C(=O)N1CCO[C@@H](c2ccccc2)C1` [Compound 156, (difluoro(2-(((S)-3-hydroxy-3-methyl-1-oxo-1-((S)-2-((S)-2-phenylmorpholine-4-carbonyl)pyrrolidin-1-yl)butan-2-yl)carbamoyl)benzo[b]thiophen-5-yl)methyl)phosphonic acid] were, in that order, more than 10 µM and 1 to 10 µM.
Take `CC(=O)N1CC[C@H]2CC[C@@H](C(=O)N3CCC[C@@H](c4ccccc4)C3)N2C(=O)[C@@H](NC(=O)c2cc3cc(C(F)(F)P(=O)(O)O)ccc3s2)C1` [Compound 157, ((2-(((5S,8S,10aR)-3-acetyl-6-oxo-8-((S)-3-phenylpiperidine-1-carbonyl)decahydropyrrolo[1,2-a][1,5]diazocin-5-yl)carbamoyl)benzo[b]thiophen-5-yl)difluoromethyl)phosphonic acid]: the figures for the Ki in test [1] and in test [2] were more than 10 µM and 1 to 10 µM, respectively.
For `CC(=O)N1CC[C@H]2CC[C@@H](C(=O)N3CCC[C@H](c4ccccc4)C3)N2C(=O)[C@@H](NC(=O)c2cc3cc(C(F)(F)P(=O)(O)O)ccc3s2)C1` [Compound 158, ((2-(((5S,8S,10aR)-3-acetyl-6-oxo-8-((R)-3-phenylpiperidine-1-carbonyl)decahydropyrrolo[1,2-a][1,5]diazocin-5-yl)carbamoyl)benzo[b]thiophen-5-yl)difluoromethyl)phosphonic acid] the same measures were more than 10 µM and 0.1 to 1 µM.
The like results for `CC(=O)N1CC[C@H]2CC[C@@H](C(=O)N3CCOC(C)(c4ccc(F)cc4)C3)N2C(=O)[C@@H](NC(=O)c2cc3cc(C(F)(F)P(=O)(O)O)ccc3s2)C1` (stereo partly drawn) [Compound 159, ((2-(((5S,8S,10aR)-3-acetyl-8-(2-(4-fluorophenyl)-2-methylmorpholine-4-carbonyl)-6-oxodecahydropyrrolo[1,2-a][1,5]diazocin-5-yl)carbamoyl)benzo[b]thiophen-5-yl)difluoromethyl)phosphonic acid] were, in that order, more than 10 µM and 1 to 10 µM.
For `CC(=O)N1CC[C@H]2CC[C@@H](C(=O)N3CCOC(C)(c4ccc(Cl)cc4)C3)N2C(=O)[C@@H](NC(=O)c2cc3cc(C(F)(F)P(=O)(O)O)ccc3s2)C1` (stereo partly drawn) [Compound 160, ((2-(((5S,8S,10aR)-3-acetyl-8-(2-(4-chlorophenyl)-2-methylmorpholine-4-carbonyl)-6-oxodecahydropyrrolo[1,2-a][1,5]diazocin-5-yl)carbamoyl)benzo[b]thiophen-5-yl)difluoromethyl)phosphonic acid] the same measures were more than 10 µM and 1 to 10 µM.
`CC(=O)N1CC[C@H]2CC[C@@H](C(=O)N3CCOC(c4ccc(F)cc4)C3)N2C(=O)[C@@H](NC(=O)c2cc3cc(C(F)(F)P(=O)(O)O)ccc3s2)C1` (stereo partly drawn) [Compound 161, ((2-(((5S,8S,10aR)-3-acetyl-8-(2-(4-fluorophenyl)morpholine-4-carbonyl)-6-oxodecahydropyrrolo[1,2-a][1,5]diazocin-5-yl)carbamoyl)benzo[b]thiophen-5-yl)difluoromethyl)phosphonic acid]: the Ki in test [1] is more than 10 µM; in test [2] it was 0.1 to 1 µM.
For `CC(=O)N1CC[C@H]2CC[C@@H](C(=O)N3CCOC(c4cccc(Cl)c4)C3)N2C(=O)[C@@H](NC(=O)c2cc3cc(C(F)(F)P(=O)(O)O)ccc3s2)C1` (stereo partly drawn) [Compound 162, ((2-(((5S,8S,10aR)-3-acetyl-8-(2-(3-chlorophenyl)morpholine-4-carbonyl)-6-oxodecahydropyrrolo[1,2-a][1,5]diazocin-5-yl)carbamoyl)benzo[b]thiophen-5-yl)difluoromethyl)phosphonic acid] the same measures were more than 10 µM and 0.1 to 1 µM.
For `CC(=O)N1CC[C@H]2CC[C@@H](C(=O)N3CCOC(c4cc(F)c(Cl)cc4Cl)C3)N2C(=O)[C@@H](NC(=O)c2cc3cc(C(F)(F)P(=O)(O)O)ccc3s2)C1` (stereo partly drawn) [Compound 163, ((2-(((5S,8S,10aR)-3-acetyl-8-(2-(2,4-dichloro-5-fluorophenyl)morpholine-4-carbonyl)-6-oxodecahydropyrrolo[1,2-a][1,5]diazocin-5-yl)carbamoyl)benzo[b]thiophen-5-yl)difluoromethyl)phosphonic acid] the same measures were more than 10 µM and 1 to 10 µM.
For `CC(=O)N1CC[C@H]2CC[C@@H](C(=O)N3CCOC(c4ccccc4C)C3)N2C(=O)[C@@H](NC(=O)c2cc3cc(C(F)(F)P(=O)(O)O)ccc3s2)C1` (stereo partly drawn) [Compound 164, ((2-(((5S,8S,10aR)-3-acetyl-6-oxo-8-(2-(o-tolyl)morpholine-4-carbonyl)decahydropyrrolo[1,2-a][1,5]diazocin-5-yl)carbamoyl)benzo[b]thiophen-5-yl)difluoromethyl)phosphonic acid] the same measures were more than 10 µM and 1 to 10 µM.
`CC(=O)N1CC[C@H]2CC[C@@H](C(=O)Nc3ncc(-c4ccccc4)s3)N2C(=O)[C@@H](NC(=O)c2cc3cc(C(F)(F)P(=O)(O)O)ccc3s2)C1` [Compound 165, ((2-(((5S,8S,10aR)-3-acetyl-6-oxo-8-((5-phenylthiazol-2-yl)carbamoyl)decahydropyrrolo[1,2-a][1,5]diazocin-5-yl)carbamoyl)benzo[b]thiophen-5-yl)difluoromethyl)phosphonic acid]: the Ki in test [1] and in test [2] was 1 to 10 µM each time.
Consider `CC(=O)N1CCN(C(=O)[C@@H]2CCCN2C(=O)[C@@H](NC(=O)c2cc3cc(C(F)(F)P(=O)(O)O)ccc3s2)C(C)(C)C)C[C@H]1c1ccccc1` [Compound 166, ((2-(((S)-1-((S)-2-((R)-4-acetyl-3-phenylpiperazine-1-carbonyl)pyrrolidin-1-yl)-3,3-dimethyl-1-oxobutan-2-yl)carbamoyl)benzo[b]thiophen-5-yl)difluoromethyl)phosphonic acid], for which the values for the Ki in test [1] and in test [2] were more than 10 µM and 1 to 10 µM, respectively.
For `CC(=O)N1CCN(C(=O)[C@@H]2CCCN2C(=O)[C@@H](NC(=O)c2cc3cc(C(F)(F)P(=O)(O)O)ccc3s2)C(C)(C)C)C[C@@H]1c1ccccc1` [Compound 167, ((2-(((S)-1-((S)-2-((S)-4-acetyl-3-phenylpiperazine-1-carbonyl)pyrrolidin-1-yl)-3,3-dimethyl-1-oxobutan-2-yl)carbamoyl)benzo[b]thiophen-5-yl)difluoromethyl)phosphonic acid] the same measures were more than 10 µM and 1 to 10 µM.
